According to US20260294863A1, “METHOD OF TREATING FIBROTIC-RELATED CONDITION” (YISSUM RESEARCH DEVELOPMENT COMPANY OF THE HEBREW …, priority 2023, published 2026):

What was measured:
IL1β = experiment: Secretion of IL1β from BzATP/LPS-activated microglia (ELISA); assay type: cell-based, Balb/C mice
Procedure: (§1) Experiments were performed on primary microglial cells isolated from brains of neonatal Balb/C mice as previously described (Reichert and Rotshenker, 2003). The brains were stripped of their meninges and enzymatically dissociated. Cells were plated on Poly-L-lysine coated flasks for one week, re-plated for 1- to 2-hr on bacteriological plates and non-adherent cells were washed away. Microglia were propagated by incubation in 20% of medium, conditioned by the L-cell line that produces mouse-CSF. They were identified by morphology and positive immune-reactivity to P2y12, F4/80, complement receptor-3 and Galectin-3/MAC-2 (Reichert and Rotshenker 2003; Gitik et al. 2011).
Cytokines were measured as previously described (Shamash et al. 2002) using ELISA Max deluxe set (Biolegend, CA, USA) for secreted TNFα and IL-6 proteins and ELISA DuoSet (R&D systems, UK) for secreted and cell associated IL-1β, according to manufacturer's instructions.
The effect of ladostigil at concentrations of 1×10^−13 M to 1×10^−9 M on the secretion of cytokine proteins was assessed by adding it to microglia for 2 hr before LPS (0.75 μg/ml) and BzATP (400 μM). Other microglia were treated similarly with the steroid, budesonide as a reference standard at concentrations of 1× 10^−13 to 1× 10^−11 M. Measurements of cytokine secretion were performed 8 hrs after addition of LPS and BzATP. Since the levels of secreted IL-1β were still low, samples were concentrated 2- to 4-fold by an Amicon ultra-centrifugal filter device (Merck-Millipore, Ireland). ELISA was used to quantify the levels of cytokine proteins. Protein content in the microglia lysate was measured by Bradford and levels of cytokines were calculated and presented as pg/μg of microglial protein.

EGR1 = experiment: Nuclear levels of EGR1 in microglia activated by BzATP and LPS; assay type: cell-based, Balb/C mice
Procedure: as §1
The addition of BzATP/LPS to microglia increased cytoplasmic levels of TNFαIP3 protein and nuclear ERGR1 protein.

[1] = Body weight in bleomycin-induced lung fibrosis; assay type: in vivo, C57BL/6JOlaHsd mice; conditions: bleomycin lung fibrosis
Procedure: The animal model of bleomycin-induced lung fibrosis is widely used to characterize the potential inhibitory effect of newly developed drugs (Distler et al. 2019). Experiments were performed in C57BL/6JOlaHsd male and female mice aged 12-13 weeks. Male mice weighed 23-27.3 g and female mice, 19.4-21.1 g. They were housed under pathogen-free conditions, up to 6 per cage, in IVC cages under a controlled temperature of 22-24° C., humidity and alternating 12-h light/dark cycles and provided with food and water ad libitum. In order to minimize the stress of daily injection, ladostigil (5 mg/Kg/day) was administered by micro-osmotic pumps, implanted subcutaneously under ketamine/xylazine anesthesia, 5 days before administration of bleomycin, and delivered for 3 weeks to mice of each sex. Saline (2-3/sex) and bleomycin controls were anesthetized as described above. Bleomycin solution (0.25 mg/kg in 50 μl) was instilled into the lumen of the trachea as shown in a video by Ehrentraut et al. (2019). […] Mice were weighed daily and sacrificed on day 21. Bronchial fluid was collected as described in Ehrentraut et al. (2019). TNFα and IL-6 in the bronchial fluid lavage was measured by ELISA as described in the preceding section.
Experiments were performed in C57BL/6JOlaHsd male mice aged 12-13 weeks as described for ladostigil. AN1284 (2.5 mg/kg/day) was administered by micro-osmotic pumps, implanted subcutaneously under ketamine/xylazine anesthesia, 5 days before administration of bleomycin and delivered for 3 weeks. Mice were weighed daily, sacrificed on day 21 and bronchial fluid was collected. Fibrosis was measured by staining with Sirius red as described for ladostigil. TNFα and IL-6 in the bronchial fluid lavage was measured by ELISA as described for ladostigil.

TGFβ = experiment: Cells containing TGFβ in the lung, bleomycin-induced lung fibrosis; assay type: in vivo, C57BL/6JOlaHsd mice; conditions: ladostigil + bleomycin; p<0.05
Procedure: The animal model of bleomycin-induced lung fibrosis is widely used to characterize the potential inhibitory effect of newly developed drugs (Distler et al. 2019). Experiments were performed in C57BL/6JOlaHsd male and female mice aged 12-13 weeks. Male mice weighed 23-27.3 g and female mice, 19.4-21.1 g. They were housed under pathogen-free conditions, up to 6 per cage, in IVC cages under a controlled temperature of 22-24° C., humidity and alternating 12-h light/dark cycles and provided with food and water ad libitum. […] TNFα and IL-6 in the bronchial fluid lavage was measured by ELISA as described in the preceding section.
Specimens taken from the left lung were embedded in paraffin and cut into 5 μm-thick slices. […] They were rehydrated and stained with a solution of Sirius red (100 mg/100 ml of [COMPOUND LEFT OUT], rinsed in distilled water until clear, dehydrated and mounted in a resinous medium. The red stain (also called “Sirius red” stain) is one of the best understood histochemical techniques. It relies on the birefringent properties of collagen and is much more specific than the other common collagen stains, Pulmonary fibrosis was evaluated on a score of 0-4 on 15-20 different fields taken from each lung section, according to the area and intensity of fibrotic staining in the field, excluding that in blood vessels. […]

[2] = Body weight in bleomycin-induced skin sclerosis; assay type: in vivo, C57BL/6 mice; conditions: 10 mg/kg/day in drinking fluid
Procedure: Male C57BL/6 mice aged 8 weeks were housed under pathogen-free conditions at a controlled temperature of 22-24° C., humidity and alternating 12-h light/dark cycles and provided with food and water ad libitum. Skin sclerosis was induced as described by Ravanetti et al, (2020). A small incision was made in the skin at the back caudal to the scapulae and subcutaneous pocket was created into which an Alzet micro-osmotic pump was implanted, and the incision closed with two stiches and a surgical clip. The pumps contained bleomycin, (delivered at the rate of 60 U/kg body weight) or saline (control) and were removed 10 days after implantation. The mice were monitored daily until they recovered completely and weighed twice weekly from the beginning of the experiment.
Ladostigil (10 mg/kg/day) was administered in the drinking fluid to 10 mice, housed 2/cage, from 3 days before bleomycin pump installation until the end of the experiment. The fluid intake of the mice was measured daily. The dose of ladostigil was adjusted accordingly. Bleomycin alone, (10 mice) and saline controls (6 mice) received regular drinking fluid.

Structure (SMILES): C#CCN[C@@H]1CCc2ccc(OC(=O)N(C)CC)cc21 [Ladostigil, 6-(N-ethyl, N-methylcarbamyloxy)-N propargyl-1 (R)-aminoindan hemitartrate]
- Emax (IL1β; Mus musculus, Microglia, 8 h, 1×10^−11-1×10^−9 M, read-out: maximal reduction of IL1β): ~50%
- minimal effective concentration (IL1β; Mus musculus, microglia, BzATP/LPS, medium containing BSA, 8 hrs, read-out: lowest concentration that significantly decreased IL1β secretion): 1e-06 µM
- reduction of IL1β release (IL1β; all concentrations tested, added 2 hrs before BzATP and LPS, 0.1% BSA, p<0.01): reduced the 3 cytokines significantly
- reduction of IL1β compared with reduction of TNFα (IL1β; ladostigil 1×10^−9 M, budesonide 1×10^−11 M): greater than that of TNFα
- Mean percent of nuclei with positive EGR1 protein immunoreactivity ± SEM (EGR1; BzATP/LPS, ladostigil 1×10^−10 M, Medium 19.0 ± 4.2): 56.0 ± 3.9%
- change in nuclear EGR1 protein (EGR1; microglia, ladostigil 1×10^−10 M on top of BzATP/LPS): decreased
- body weight loss ([1]; females, 5 and 10 mg/kg): significantly reduced weight loss
- body weight loss ([1]; males, only at 10 mg/kg): significantly reduced weight loss
- number of cells containing TGFβ in the lung (TGFβ): significantly reduced the number of cells containing TGFβ
- weight gain compared with bleomycin ([2]; days 18, 21, 24 and 27): greater than in those on bleomycin
- increase in body weight ([2]; days 24-27, skin sclerosis): 15%
